Experimental data published in ChEMBL document CHEMBL1201862, “PubChem BioAssay data set” (2004).
The source made the active and inactive calls.

Tests used:
[1] = target: ADP-ribosylation factor GTPase-activating protein 1 (Rattus norvegicus, UniProt Q62848); experiment: Fluorescence polarization-based biochemical high throughput dose response screening assay to identify inhibitors of ADP-ribosylation factor GTPase activating protein 1 (ARFGAP1).; format: functional
[2] = inhibitors of intracellular T. cruzi replication, confirmation, NIH3T3 host cells, beta-gal luminescence (AID 2044); format: functional, cell-based;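 note: intracellular parasites grown in NIH/3T3 mouse fibroblasts as host cells; luminescent beta-galactosidase reporter signal from transgenic T. cruzi replicating inside host cells; inhibitors lower the luminescence signal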
[3] = target: T1, Rac GTPase-activating protein 1 (Homo sapiens, UniProt Q9H0H5); experiment: MgcRacGAP GTPase-activating activity inhibitors, confirmation, biochemical, ADP Hunter fluorescence, primary and confirmatory (AID 624330); format: functional
T1 sequence (Q9H0H5 whole entry): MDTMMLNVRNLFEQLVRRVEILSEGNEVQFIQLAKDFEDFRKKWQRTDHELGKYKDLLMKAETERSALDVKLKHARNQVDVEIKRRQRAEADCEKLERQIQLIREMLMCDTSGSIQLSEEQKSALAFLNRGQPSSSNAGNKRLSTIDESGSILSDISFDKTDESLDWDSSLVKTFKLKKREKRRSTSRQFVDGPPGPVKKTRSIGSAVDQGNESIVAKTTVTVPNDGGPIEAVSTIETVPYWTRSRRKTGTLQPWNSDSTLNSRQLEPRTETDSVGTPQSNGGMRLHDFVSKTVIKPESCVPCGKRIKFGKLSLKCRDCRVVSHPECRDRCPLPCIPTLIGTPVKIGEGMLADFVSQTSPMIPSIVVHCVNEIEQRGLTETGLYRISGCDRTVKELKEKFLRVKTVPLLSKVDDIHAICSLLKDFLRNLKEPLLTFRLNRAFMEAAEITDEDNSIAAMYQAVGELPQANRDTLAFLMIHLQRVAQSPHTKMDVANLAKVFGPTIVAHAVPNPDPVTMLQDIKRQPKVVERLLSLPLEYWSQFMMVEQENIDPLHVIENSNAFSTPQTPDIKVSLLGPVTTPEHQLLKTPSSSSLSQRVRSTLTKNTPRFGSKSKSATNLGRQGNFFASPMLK

Streptococcus = experiment: Group A Streptococcus viability loss, dose response, counter-screen for streptokinase expression inhibitor project, luminescence, BacTiterGlo (AID 1915); format: functional, organism-based;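 note: potency for reduction of bacterial viability or growth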
[4] = cytotoxicity toward NIH3T3 fibroblasts, dose response, counter-screen, cell-based, ATP luminescence, mouse fibroblasts (AID 2010); format: functional;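 note: cells exposed to compound for about 90 hours before reading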
Nonstructural protein 1 = Nonstructural protein 1 (Influenza A virus, UniProt Q194T2); format: functional, Influenza A virus (A/California/07/2009(H1N1))
[5] = tested on: Streptococcus sp. 'group A'; experiment: growth inhibition of control SK(-) GAS strain, dose response, counter-screen for streptokinase expression inhibitor project, luminescence, kanamycin, BacTiterGlo, confirmation (AID 1900); format: functional, organism-based
Leucine aminopeptidase = target: T2, Leucine aminopeptidase (Plasmodium falciparum 3D7, UniProt Q8IL11); experiment: P. falciparum M17LAP inhibitors, primary screen, biochemical, fluorogenic H-Leu-NHMec substrate, 1536-well (AID 1619); format: functional
T2 sequence (Q8IL11 whole entry): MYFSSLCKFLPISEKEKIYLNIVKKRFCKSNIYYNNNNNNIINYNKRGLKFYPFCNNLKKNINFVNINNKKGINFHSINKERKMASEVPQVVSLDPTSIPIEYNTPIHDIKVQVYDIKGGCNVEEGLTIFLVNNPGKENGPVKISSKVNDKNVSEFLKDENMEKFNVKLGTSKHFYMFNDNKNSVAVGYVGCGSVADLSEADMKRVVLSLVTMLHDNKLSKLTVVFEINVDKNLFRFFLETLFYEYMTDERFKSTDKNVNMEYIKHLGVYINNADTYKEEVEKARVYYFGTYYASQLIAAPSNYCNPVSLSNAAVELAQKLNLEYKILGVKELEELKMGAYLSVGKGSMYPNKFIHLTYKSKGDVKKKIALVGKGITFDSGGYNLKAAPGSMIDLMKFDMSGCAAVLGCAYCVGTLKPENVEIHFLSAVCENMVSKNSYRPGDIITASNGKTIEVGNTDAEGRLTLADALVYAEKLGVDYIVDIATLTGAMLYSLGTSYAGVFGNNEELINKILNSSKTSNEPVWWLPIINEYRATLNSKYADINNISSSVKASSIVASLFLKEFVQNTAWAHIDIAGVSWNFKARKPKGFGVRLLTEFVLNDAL

[6] = HeLa cell cytotoxicity, dose response, cytotoxicity control for MgcRacGAP inhibitor project (AID 624300); format: functional
[7] = target: Photoreceptor-specific nuclear receptor (Homo sapiens, UniProt Q9Y5X4); format: functional, cell-based;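 note: CHO-S cells with Gal4-NCOR and VP16-NR2E3 two-hybrid luciferase reporter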
[8] = NIH-3T3 fibroblast cytotoxicity, dose response, cytotoxicity control, cell-based, fluorescence, Alamar Blue, secondary assay (AID 2327); format: functional;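 note: NIH-3T3 mouse fibroblasts cultured with fluconazole at 8 µg/mL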
[9] = C. albicans growth with fluconazole, confirmation, fluorescence, retest (AID 2467); format: functional, cell-based
Streptokinase A = target: T3, Streptokinase A (Streptococcus pyogenes serotype M1, UniProt P10520); experiment: S. pyogenes streptokinase expression inhibitors, potency, dose response, plasminogen activation absorbance, OD405 (AID 1914); format: functional, Streptococcus pyogenes M1 GAS;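 note: secreted streptokinase activity via plasminogen activation per viability signal from cell pellet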
T3 sequence (P10520 whole entry): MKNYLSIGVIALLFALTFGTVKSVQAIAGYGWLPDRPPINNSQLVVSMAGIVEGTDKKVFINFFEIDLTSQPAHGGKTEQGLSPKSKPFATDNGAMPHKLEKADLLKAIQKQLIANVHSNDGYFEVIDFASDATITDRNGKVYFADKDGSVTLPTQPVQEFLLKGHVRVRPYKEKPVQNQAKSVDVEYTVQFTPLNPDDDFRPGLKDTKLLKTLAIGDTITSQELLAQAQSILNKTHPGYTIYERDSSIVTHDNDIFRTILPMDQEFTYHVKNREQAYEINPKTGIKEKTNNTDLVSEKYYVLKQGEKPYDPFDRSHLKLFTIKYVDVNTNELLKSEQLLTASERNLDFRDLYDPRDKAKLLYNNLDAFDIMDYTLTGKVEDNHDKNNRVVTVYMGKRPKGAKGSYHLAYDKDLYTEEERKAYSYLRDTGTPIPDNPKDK

[10] = target: Tyrosine-protein phosphatase non-receptor type 11 (Homo sapiens, UniProt Q06124); experiment: SHP2 phosphatase inhibition, dose response, selectivity assay for STEP inhibitor project, biochemical (AID 602367); format: functional; settings: read-out: IC50_Mean
[11] = target: Tyrosine-protein phosphatase non-receptor type 5 (Homo sapiens, UniProt P54829); experiment: STEP phosphatase inhibitors, confirmation, biochemical, fluorescence intensity, uHTS hits (AID 602372); format: functional; settings: read-out: IC50_Mean
[12] = target: Dual specificity protein phosphatase 3 (Homo sapiens, UniProt P51452); experiment: VHR phosphatase inhibition, dose response, selectivity assay for STEP inhibitor project, biochemical (AID 602374); format: functional; settings: read-out: IC50_Mean
[13] = target: Arf-GAP with SH3 domain, ANK repeat and PH domain-containing protein 1 (Homo sapiens, UniProt Q9ULH1); format: functional;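 note: biochemical fluorescence polarization dose–response screen measuring inhibition of ASAP1; ASAP1 GAP domain stimulating GTP hydrolysis by truncated human ARF1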
[14] = NIH/3T3 fibroblast cytotoxicity, dose response, cytotoxicity control for T. cruzi growth inhibitor project, cell-based, cherry-pick samples, set 2 (AID 651817); format: functional; settings: NIH3T3

Sequence of Photoreceptor-specific nuclear receptor (Q9Y5X4 whole entry, the tested form may be a part): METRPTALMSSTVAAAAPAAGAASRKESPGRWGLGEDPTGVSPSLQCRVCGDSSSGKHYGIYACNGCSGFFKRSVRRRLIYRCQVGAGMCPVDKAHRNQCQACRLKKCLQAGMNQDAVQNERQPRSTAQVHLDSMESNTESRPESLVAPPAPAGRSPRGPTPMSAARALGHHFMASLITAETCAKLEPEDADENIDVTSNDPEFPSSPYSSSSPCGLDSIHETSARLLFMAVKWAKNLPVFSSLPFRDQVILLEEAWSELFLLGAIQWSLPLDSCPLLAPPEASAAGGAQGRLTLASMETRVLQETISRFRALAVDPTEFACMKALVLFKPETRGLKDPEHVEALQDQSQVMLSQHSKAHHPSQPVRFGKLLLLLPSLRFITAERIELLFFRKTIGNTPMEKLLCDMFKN
Sequence of Arf-GAP with SH3 domain, ANK repeat and PH domain-containing protein 1 (Q9ULH1 whole entry, the tested form may be a part): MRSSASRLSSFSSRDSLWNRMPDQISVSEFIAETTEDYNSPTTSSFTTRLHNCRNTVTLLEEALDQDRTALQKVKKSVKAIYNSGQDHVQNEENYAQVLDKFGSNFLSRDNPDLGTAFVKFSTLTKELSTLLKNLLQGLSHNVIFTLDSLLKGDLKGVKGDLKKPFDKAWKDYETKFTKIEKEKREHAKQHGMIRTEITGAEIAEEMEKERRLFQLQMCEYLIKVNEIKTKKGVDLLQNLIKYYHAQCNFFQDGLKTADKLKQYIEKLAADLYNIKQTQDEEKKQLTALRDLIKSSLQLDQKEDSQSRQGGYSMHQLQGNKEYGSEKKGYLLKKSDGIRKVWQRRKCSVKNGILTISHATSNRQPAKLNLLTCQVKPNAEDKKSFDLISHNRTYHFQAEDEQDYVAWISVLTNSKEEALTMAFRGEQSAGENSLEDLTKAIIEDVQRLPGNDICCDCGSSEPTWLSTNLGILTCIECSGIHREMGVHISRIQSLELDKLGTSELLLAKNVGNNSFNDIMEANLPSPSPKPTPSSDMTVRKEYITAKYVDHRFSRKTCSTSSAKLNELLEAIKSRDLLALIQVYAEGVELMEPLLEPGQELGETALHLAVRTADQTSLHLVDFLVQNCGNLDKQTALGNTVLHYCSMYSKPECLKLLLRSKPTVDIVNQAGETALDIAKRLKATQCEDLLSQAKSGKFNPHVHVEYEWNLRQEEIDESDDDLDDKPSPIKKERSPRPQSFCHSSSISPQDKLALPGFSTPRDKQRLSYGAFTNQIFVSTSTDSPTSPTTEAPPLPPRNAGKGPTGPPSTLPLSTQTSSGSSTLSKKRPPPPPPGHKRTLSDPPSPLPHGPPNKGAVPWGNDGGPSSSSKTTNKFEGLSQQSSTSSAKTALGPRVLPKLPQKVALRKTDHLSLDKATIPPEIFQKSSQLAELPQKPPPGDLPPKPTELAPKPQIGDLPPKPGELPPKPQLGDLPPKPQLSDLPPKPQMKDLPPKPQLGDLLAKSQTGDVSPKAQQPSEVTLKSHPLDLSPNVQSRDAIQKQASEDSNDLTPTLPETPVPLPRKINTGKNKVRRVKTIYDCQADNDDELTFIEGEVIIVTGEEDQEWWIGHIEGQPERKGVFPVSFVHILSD
Sequence of Tyrosine-protein phosphatase non-receptor type 5 (P54829 whole entry): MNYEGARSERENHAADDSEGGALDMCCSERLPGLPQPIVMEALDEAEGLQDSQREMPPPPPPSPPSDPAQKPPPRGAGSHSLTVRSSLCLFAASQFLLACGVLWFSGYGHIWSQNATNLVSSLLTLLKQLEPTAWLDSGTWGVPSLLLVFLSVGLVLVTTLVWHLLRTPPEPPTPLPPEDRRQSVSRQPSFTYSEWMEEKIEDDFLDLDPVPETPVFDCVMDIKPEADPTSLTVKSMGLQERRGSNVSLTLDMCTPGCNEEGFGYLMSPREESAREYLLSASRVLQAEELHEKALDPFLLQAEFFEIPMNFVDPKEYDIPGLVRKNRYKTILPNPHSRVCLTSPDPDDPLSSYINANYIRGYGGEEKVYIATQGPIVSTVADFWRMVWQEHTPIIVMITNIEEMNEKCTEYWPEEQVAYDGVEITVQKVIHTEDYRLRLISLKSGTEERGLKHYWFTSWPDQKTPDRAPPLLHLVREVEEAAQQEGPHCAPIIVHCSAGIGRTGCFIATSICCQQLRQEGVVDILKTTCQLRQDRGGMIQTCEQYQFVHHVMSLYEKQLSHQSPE
Sequence of Dual specificity protein phosphatase 3 (P51452 whole entry, the tested form may be a part): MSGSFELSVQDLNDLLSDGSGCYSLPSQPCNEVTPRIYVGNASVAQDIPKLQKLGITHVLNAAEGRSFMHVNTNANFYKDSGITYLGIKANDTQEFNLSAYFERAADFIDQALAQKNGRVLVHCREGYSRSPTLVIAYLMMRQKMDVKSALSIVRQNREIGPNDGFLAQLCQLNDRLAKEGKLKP
Sequence of ADP-ribosylation factor GTPase-activating protein 1 (Q62848 whole entry): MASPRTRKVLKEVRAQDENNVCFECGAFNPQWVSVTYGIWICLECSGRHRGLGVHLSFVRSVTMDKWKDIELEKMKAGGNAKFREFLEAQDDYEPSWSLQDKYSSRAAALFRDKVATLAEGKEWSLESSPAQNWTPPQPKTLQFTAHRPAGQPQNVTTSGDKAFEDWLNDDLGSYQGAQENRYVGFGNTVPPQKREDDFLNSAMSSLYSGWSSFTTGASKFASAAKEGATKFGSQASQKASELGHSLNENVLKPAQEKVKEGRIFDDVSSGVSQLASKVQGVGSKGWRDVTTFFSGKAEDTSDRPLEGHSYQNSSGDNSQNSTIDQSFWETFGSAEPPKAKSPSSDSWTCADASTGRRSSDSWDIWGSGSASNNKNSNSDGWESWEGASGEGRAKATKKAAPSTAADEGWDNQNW
Sequence of Nonstructural protein 1 (Q194T2 whole entry): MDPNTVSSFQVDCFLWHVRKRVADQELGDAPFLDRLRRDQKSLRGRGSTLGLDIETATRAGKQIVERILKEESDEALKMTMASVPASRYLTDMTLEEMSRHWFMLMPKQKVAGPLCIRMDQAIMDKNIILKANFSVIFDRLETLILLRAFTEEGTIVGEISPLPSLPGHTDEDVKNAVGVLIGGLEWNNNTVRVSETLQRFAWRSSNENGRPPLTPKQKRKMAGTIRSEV
Sequence of Tyrosine-protein phosphatase non-receptor type 11 (Q06124 whole entry): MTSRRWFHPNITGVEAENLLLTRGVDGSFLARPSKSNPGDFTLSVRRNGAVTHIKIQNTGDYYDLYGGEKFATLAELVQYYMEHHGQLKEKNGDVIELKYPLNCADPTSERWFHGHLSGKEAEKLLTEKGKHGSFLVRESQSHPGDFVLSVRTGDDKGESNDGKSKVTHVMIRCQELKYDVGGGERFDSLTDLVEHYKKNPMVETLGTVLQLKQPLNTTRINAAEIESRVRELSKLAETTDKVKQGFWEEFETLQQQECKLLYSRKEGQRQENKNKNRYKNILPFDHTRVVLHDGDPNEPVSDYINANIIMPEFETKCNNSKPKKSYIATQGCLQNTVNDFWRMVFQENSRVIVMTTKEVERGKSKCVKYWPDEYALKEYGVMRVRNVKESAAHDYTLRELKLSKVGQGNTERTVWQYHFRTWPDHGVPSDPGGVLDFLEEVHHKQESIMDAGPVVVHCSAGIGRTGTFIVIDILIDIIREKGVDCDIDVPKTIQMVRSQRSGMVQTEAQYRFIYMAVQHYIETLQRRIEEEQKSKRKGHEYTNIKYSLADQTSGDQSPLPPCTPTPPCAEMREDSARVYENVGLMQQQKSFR

## CCC(=O)Nc1ccc(NC(=O)CSc2nnnn2-c2ccc3c(c2)OCCO3)cc1
[1]
  IC50: 40.7 µM (inactive)

## CN(C)c1ccc(/C=C/c2ccc3ccccc3[n+]2C)cc1
[2]
  EC50: < 0.1 µM (active)
[3]
  IC50: 46.8 µM (active)
Streptococcus
  EC50: 11.5 µM (active)
[4]
  EC50: 18.5 µM (active)
Nonstructural protein 1
  IC50: 14.3 µM (active)
[5]
  EC50: 6.7 µM (active)
Leucine aminopeptidase
  IC50: 88.4 µM (active)
[6]
  CC50: 28.9 µM (active)
[7]
  IC50: 19.2 µM (inactive)
[8]
  EC50: > 150 µM (inactive)
cells
  EC50: < 0.004 µM (active)
[9]
  EC50: 0.035 µM (active)
Streptokinase A
  EC50: > 150 µM (not active)

## NC(=NOC(=O)c1cccc2ccccc12)c1cccc([N+](=O)[O-])c1
[10]
  IC50: 5.9 µM (active)
[11]
  IC50: 29.7 µM (inactive)
[12]
  IC50: 5.16 µM (active)
[13]
  IC50: 20.9 µM (inactive)

## C[C@@H]1CN([C@H](C)CO)C(=O)c2cccc(NC(=O)c3ccncc3)c2O[C@H]1CN(C)Cc1ccc(-c2ccccc2)cc1
[14]
  AC50: 42 µM (inactive)
